The values below come from patent US20230364121A1 (priority 2020, published 2023).

Each structure is given as a SMILES string. “And” between values parts separate entries of the source, which are not always exact repeats. Equal entries are not always repeated. Where two headings read alike, the source gives them in different places.

Data set [1] concerns the target T1, SARS-Cov-1 nsp12:7L8:8 polymerase complex (Severe acute respiratory syndrome coronavirus, UniProt P0C6X7). Format: biochemical.
In data set [2] the target is T1, SARS-Cov-1 nsp12:7L8:8 polymerase complex. Nature of the data set: biochemical. It counts as biochemical.
Data set [3] is described as follows: Bronchoalveolar lavage and plasma PK / safety study in healthy participants. It counts as in vivo, human. The procedure:
Two cohorts of 8 healthy participants have been enrolled to receive AT-527 at 275 or 550 mg BID orally for 2.5 days. At 4 and 12 h following the last dose, each participant (4/timepoint/cohort) underwent a single bronchoalveolar lavage (BAL) via a standard bronchoscope. Intensive plasma PK sampling was also performed after the last dose. BAL and plasma samples were assayed for AT-273. AT-273 levels in lung epithelial lining fluid (ELF) were calculated by correcting for urea levels in the BAL and the corresponding plasma samples. Safety assessments included adverse events (AEs), vital signs, electrocardiograms (ECGs), and standard laboratory tests.

In data set [4] the test system is SARS-CoV and SARS-CoV-2 RTCs. It counts as biochemical.
Data set [5] addresses nsp12 (Severe acute respiratory syndrome coronavirus, UniProt P0C6X7). Format: binding, SARS-CoV.
In data set [6] the target is nsp12 NiRAN active-site (Severe acute respiratory syndrome coronavirus, UniProt P0C6X7). Nature of the data set: biochemical. It counts as biochemical, SARS-CoV.
Data set [7] has as its target nsp12:7:8 RTC (Severe acute respiratory syndrome coronavirus, UniProt P0C6X7). Format: biochemical, SARS-CoV.
Data set [8] has as its target Sars-CoV-2 nsp8 labeling by nsp12 (Severe acute respiratory syndrome coronavirus 2, UniProt P0DTD1). Nature of the data set: nsp8-UMPylation competition assay with RTCs. It counts as biochemical. The conditions noted are these: FIG. 13E.
The target in data set [9] is nsp12-NiRAN (Severe acute respiratory syndrome coronavirus, UniProt P0C6X7). Format: biochemical, SARS-CoV.
The target in data set [10] is SARS CoV1 nsp14 (Severe acute respiratory syndrome coronavirus, UniProt P0C6X7). Format: biochemical, SARS-CoV-1.
Data set [11] relates to SARS-CoV-2 strain BavPatl. Nature of the data set: Antiviral assay in HUH7.5 cells, viral RNA by RT-qPCR. Format: cell-based. Conditions: 2 days; for EC90: Severe acute respiratory syndrome coronavirus 2, 48 h. For orientation: Quantitative PCR measures a nucleic acid by following its amplification.
The nature of data set [12]: in vitro. Conditions: human.
The test system of data set [13] is Salmonella/microsome. The conditions noted are these: acknowledged by Merck; cited from earlier work.
Data set [14] deals with Huh7 cells. The conditions noted are these: human.
The test system of data set [15] is human coronavirus alpha-229E. Nature of the data set: microbe, parasite or virus in culture. Format: cell-based, HCoV-229E. Conditions: for EC90: read-out: Virus Yield Reduction Assay EC90; for EC50: Huh-7, 120 h, read-out: Neutral Red Assay EC50.
Data set [16] in a line: Cytotoxicity in mock infected MES-1 cells (MTT). Format: cell-based. Conditions: mock infected MES-1 cells, Table 3A. The procedure:
(§1) To determine the cytotoxicity, cells were seeded at an initial density of 1×10^6 cells/mL in 96 well plates containing Minimum Essential Medium with Earles's salts (MEM-E), L-glutamine, 1 mM sodium pyruvate and 25 mg/L kanamycin, supplemented with 10% fetal bovine serum. Cell cultures were then incubated at 37° C. in a humidified 5% CO2 atmosphere in the absence or presence of serial dilutions of test compounds. Cell viability was determined by the MTT method.

Data set [17] deals with HCoV. Nature of the data set: microbe, parasite or virus in culture. It counts as cell-based, human coronavirus.
Data set [18] has as its system mock infected MES-1 cells. Nature of the data set: Cytotoxicity in mock infected MES-1 cells (MTT). Format: cell-based. The conditions noted are these: Table 3B, 3 days. The procedure:
as §1

Data set [19] deals with HCoV-229E. Nature of the data set: Virus-induced CPE assay, HCoV-229E in BHK-21 cells (MTT). The conditions noted are these: Human coronavirus 229E, BHK-21, 72 h, BHK-21; dye staining; 3-day incubation; read-out: EC50. Format: cell-based. The procedure:
In an initial screening, BHK-21 cells acutely infected with a seasonal human alpha coronavirus, HCoV-229E, were exposed to serial dilutions of Compound 1A.
BHK-21 cells: Test compounds were dissolved in DMSO at 100 mM and then diluted in Minimum Essential Medium with Earle's salts (MEM-E) containing 1 mM sodium pyruvate and 25 μg/mL kanamycin, supplemented with 10% FBS (growth medium) to final concentrations of 100, 20, 4 and 0.8 μM (two […] replica plates each). After BHK-21 cells were grown to confluency in 96-well plates, growth medium was replaced with fresh maintenance medium (growth medium with 1% inactivated FBS in place of 10% FBS) containing serially diluted test compound and HCoV-229E at a multiplicity of infection (MOI) of 0.01. Uninfected cells in the presence of serially diluted compound were used to assess the cytotoxicity of compounds. After a 3-day incubation at 37° C. in a humidified 5% CO2 atmosphere, cell viability was determined by the MTT method (Pauwels, R et al. J. Virol. Methods 20(4):309-321 (1988)).

Data set [20] can be described thus: Cytotoxicity in mock infected BHK cells (MTT). Format: cell-based, hamster. Conditions: hamster, uninfected BHK-21 cells; BHK-21; Table 5. The procedure: as §1
Uninfected cells in the presence of serially diluted compound were used to assess the cytotoxicity of compounds.

The mark [21] stands for this setting: AT-527 550 mg BID orally 2.5 days, 4 and 12 h after last dose.
Where [22] appears, read: IC50 of nsp8 labeling against GTP (FIG. 13C).
Setting [23] is: IC50 of nsp8 labeling against UTP (FIG. 13C).
The mark [24] stands for this setting: IC50 of nsp8 labeling, competition with UTP (FIG. 13A).
Where [25] appears, read: Severe acute respiratory syndrome coronavirus 2, Huh7.5, 48 h.
Where [26] appears, read: unidentified human coronavirus, Huh-7, 72 h.
Setting [27] is: unidentified human coronavirus, 72 h.

Usually EC50 stands for the midpoint of the concentration-response curve. Consider `C[C@@]1(F)[C@H](O)[C@@H](COP(=O)(O)OP(=O)(O)OP(=O)(O)O)O[C@H]1n1ccc(=O)[nH]c1=O` [2′C-Me 2′F-UTP, reference compound], for which the “incorporation efficacy compared to misincorporation at a U position” value in data set [1] is reported as “around 40%”. The compound also displayed an EC50 in data set [2] of 20 to 40 µM.

For the compound `C[C@@]1(F)[C@H](O)[C@@H](CO)O[C@H]1n1cnc2c(=O)[nH]c(N)nc21` [AT-273], in data set [3] (setting [21]), the “Mean AT-273 level in lung ELF” value is ≥ 0.5 µM and the “Mean AT-273 level in plasma” value is ≥ 0.5 µM. In addition, the “correlation of ELF and plasma levels (r)” value in data set [3] (P<0.001) was 0.86.

Broadly, the IC50 is the concentration that gives 50% inhibition. Lower therefore signals inhibition by little substance. For the compound `C[C@@]1(F)[C@H](O)[C@@H](COP(=O)(O)OP(=O)(O)OP(=O)(O)O)O[C@H]1n1cnc2c(=O)[nH]c(N)nc21` [AT-9010, 2′-fluoro-2′-C-methylguanosine-5′-triphosphate], the “discrimination compared with natural GTP” value in data set [4] (equimolar concentrations of GTP) is ~5 fold. Also, in data set [5], the “thermal stability of nsp12” value was “provides more thermodynamic stability than any other native nucleotide”. In data set [1], the “Discrimination of ATEA-GTP, average” value is 27.0+/−7.9 fold and 21.0+/−1.5 fold and 27.0 fold and 21.0 fold; the “discrimination against GTP” value turned out to be 22 fold; the “inhibition of primer elongation” value is “no inhibition of primer elongation”. The IC50 in [6] (setting [22]) was 2.7 ± 0.3 µM. Besides, the midpoint of inhibition in data set [6] (setting [23]), the IC50, lay at 1.9 µM. For the same compound, the IC50 in data set [6] (setting [24]) worked out at 0.87 µM. In [7], the “inhibition of RNA synthesis from poly(C) template” value is “significantly reduces activity” and the “inhibition of synthesis of poly(U)n RNA from poly(A)27 template” value is “inhibits synthesis of poly(U)n RNA equally as well as STP”. In addition, in data set [2], the EC50 fell in the range of 1.5 to 2 µM and the “inhibition of de novo synthesis on poly(A) template” value is reported as “almost complete inhibition”. In data set [8], the “fold more efficient at blocking nsp8 labeling than STP” value is recorded as 4-5 fold. In [9], the “fold preference AT9010: GTP” value was ~1.7 fold and the “fold preference AT9010: UTP” value is recorded as ~3.2 fold. For the same compound, the “inhibition of N7-MTase activity” value in data set [10] was “no inhibition”.

One may read the EC90 as the concentration needed for an effect of 90%. On to `CC(C)C[C@H](NC(=O)OCc1ccccc1)C(=O)N[C@@H](C[C@@H]1CCNC1=O)C(O)S(=O)(=O)O` (some centres unmarked) [GC376], for which, in [11], the concentration for an effect of 90% (EC90) is < 0.15 µM. The EC50 in data set [11] (setting [25]) is < 0.15 µM. Moreover, in [12], the CC50 was > 20 µM.

As for `CC(C)C(=O)OC[C@H]1O[C@@H](n2ccc(NO)nc2=O)[C@H](O)[C@@H]1O` [Molnupiravir, molnupiravir], in [11], it took 1.71 µM to reach a half-maximal effect (EC50) and it took 4.21 µM to reach the 90% level (EC90). Moreover, the midpoint of the response in data set [11] (setting [25]), the EC50, lay at 1.7 µM. For the same compound, in data set [12], the CC50 was > 20 µM. Further, the AMES test result in data set [13] is “positive”.

With `C[C@@]1(F)[C@H](O)[C@@H](COP(=O)(O)OP(=O)(O)OP(=O)(O)O)O[C@H]1n1ccc(=O)[nH]c1=O` [STP, 5′-triphosphate 2′-fluoro-2′-C-methyl uridine], the “competition with UTP” value in [4] (5-fold higher concentrations than UTP) and in data set [4] (STP: UTP 20:1) was “not competitive” throughout. Besides, in data set [1], the “discrimination as substrate of the SARS-CoV RDRP” value is recorded as > 250 fold. Also, in data set [6], the “fold less efficient at blocking nsp8 labeling / UMPylation than AT-9010” value was ~5 fold. Moreover, the IC50 in data set [6] (setting [22]) amounted to 5 ± 0.8 µM; in data set [6] (setting [23]) it was 8.2 ± 1.4 µM; in data set [6] (setting [24]), 4.6 ± 0.2 µM. Also, in [7], the “inhibition of RNA synthesis from poly(C) template” value was “virtually inactive”.

`CCN(CC)CCCC(C)Nc1ccnc2cc(Cl)ccc12` (centres unmarked) [chloroquine, reference compound]: the CC50 in data set [14] was 21 µM. Further, the EC90 in [15] (setting [26]) is < 0.05 µM. Moreover, the EC50 in data set [15] (unidentified human coronavirus) worked out at 8.1 µM.

In the case of `CCC(CC)COC(=O)[C@H](C)N[P@](=O)(OC[C@H]1O[C@@](C#N)(c2ccc3c(N)ncnn23)[C@H](O)[C@@H]1O)Oc1ccccc1` [drawing 251], the CC50 at 3 days in [16] is > 100 µM. In [17] (setting [27]), the EC50 amounted to 6 µM.

On to `CC(C)[C@H](N)C(=O)O[C@@H]1[C@@H](CO)O[C@@H](n2ccc(N)nc2=O)[C@]1(C)O` [drawing 252], for which the CC50 at 3 days in data set [16] is > 100 µM. The EC50 in data set [17] (setting [27]) is > 100 µM.

For `CNc1nc(N)nc2c1ncn2[C@@H]1O[C@H](CO[P@@](=O)(N[C@@H](C)C(=O)OC(C)C)Oc2ccccc2)[C@@H](O)[C@@]1(C)F` [drawing 253], the CC50 in data set [18] was > 100 µM. This compound also returned a half-maximal effective concentration (EC50) in data set [17] of 2 µM.

Regarding `CNc1nc(N)nc2c1ncn2[C@@H]1O[C@H](CO[P@](=O)(N[C@@H](C)C(=O)OC(C)C)Oc2ccccc2)[C@@H](O)[C@@]1(C)F` [drawing 254], the CC50 in data set [18] was > 100 µM. The compound also displayed an EC50 in [17] of 2.2 µM.

Take `CC(C)OC(=O)[C@H](C)N[P@](=O)(OCC1O[C@@H](n2ccc(=O)[nH]c2=O)[C@](C)(F)[C@@H]1O)Oc1ccccc1` (some centres unmarked) [drawing 255]: in data set [18], the CC50 was > 100 µM. For the same compound, in data set [17], the EC50 was > 100 µM.

As to `CC(C)(CO)C(=O)SCCOP(=O)(NCc1ccccc1)OC[C@H]1O[C@@H](n2cnc3c(=O)[nH]c(N)nc32)[C@](C)(O)[C@@H]1O` (some centres unmarked) [drawing 257], the CC50 in data set [18] was found to be 82 µM. In addition, in data set [17], a half-maximal response (EC50) required 1.7 µM.

For `CCC(CC)COC(=O)[C@H](C)N[P@](=O)(OC[C@H]1O[C@@](C#N)(c2ccc3c(N)ncnn23)[C@H](O)[C@@H]1O)Oc1ccccc1` [drawing 258], the CC50 in [18] was > 100 µM. Moreover, the EC50 in data set [17] was 5.5 µM.

On to `CC(C)[C@H](N)C(=O)O[C@@H]1[C@@H](CO)O[C@@H](n2ccc(N)nc2=O)[C@]1(C)O` [drawing 259], for which the CC50 in [18] was > 100 µM.

`CCN(CCO)CCCC(C)Nc1ccnc2cc(Cl)ccc12` (centres unmarked) [hydroxychloroquine, reference compound] returned a CC50 in data set [14] of 26 µM. Moreover, the EC90 is < 0.048 µM in data set [15] and < 0.05 µM in [15] (setting [26]). Besides, in data set [15] (unidentified human coronavirus), the EC50 turned out to be 7.4 µM.

With `CC(C)OC(=O)[C@H](C)N[P@](=O)(OC[C@H]1O[C@@H](n2ccc(=O)[nH]c2=O)[C@](C)(F)[C@@H]1O)Oc1ccccc1` [sofosbuvir, reference compound], the “fold less efficient at blocking nsp8 labeling / UMPylation than AT-9010” value in data set [6] is reported as “about 5 fold”. Further, the EC50 in [19] was > 100 µM. In addition, in data set [20], the CC50 at 3 days was > 100 µM.
